Test results from a melting point compilation (Tetko et al.).

In the case of `CCC(c1ccccc1)c1nnc(N)o1` (configuration not stated), the melting point is reported as 197 to 199 °C. In the case of `Cc1ccsc1C(=O)c1ccc(Cl)cc1F`, the melting point is reported as 39 to 41 °C. With `N#Cc1ccc(-c2ccccc2)[nH]c1=O` the melting point was 297 to 299 °C. For `O=C(O)c1ccccc1NCc1ccccc1Cl`, the melting point was 183 to 185 °C. `CCN(CC)S(=O)(=O)c1ccc(N2CC(C(=O)O)CC2=O)cc1` (configuration not stated) showed a melting point of 123 to 127 °C. `ClCc1ncc(-c2ccccc2)s1` gave a melting point of 39 to 41 °C. Work on `COc1ccc(Sc2ccc(N)cc2Cl)cc1` yielded a melting point of 104 to 106 °C. With `NC(=O)c1c[nH]c(C(=O)O)c1` the melting point was 264 to 266 °C. For `CCN1CCc2nc(N)sc2C1`, the melting point was 71 to 80 °C. Molecule `Cc1nc(C)n(Cc2cccc(N)c2)n1` has a melting point of 109 to 111 °C. With `COc1ccc(Br)cc1NCc1ccncc1` the melting point was 89 to 91 °C. In the case of `COc1ccc(-c2ccc(CN)s2)cc1`, the melting point is reported as 114 to 116 °C. `CC(C)c1nnnn1CC(=O)O` showed a melting point of 179 to 181 °C. In the case of `N#Cc1ccc(Oc2ccccc2O)c(F)c1`, the melting point is reported as 97 to 99 °C. With `N#Cc1cccc(NN)c1` the melting point was 104 to 106 °C. `Cc1nc(-c2ccc(F)c(F)c2)sc1C(=O)O` showed a melting point of 209 to 211 °C. Work on `COC(=O)c1cc(OC)ccc1S(=O)(=O)Cl` yielded a melting point of 49 to 51 °C. For `Cc1cc(Br)cc2cc(C(=O)O)oc12`, the melting point was 222 to 224 °C. Work on `Fc1ccc(OCc2ccc3ccccc3n2)c(Br)c1` yielded a melting point of 124 to 126 °C. With `O=C(O)c1sccc1S(=O)(=O)N1CCOCC1` the melting point was 189 to 191 °C. Work on `COCCOc1ccc(Cl)cc1C(=O)O` yielded a melting point of 68 to 70 °C. `CCn1c(=O)[nH]c2ccccc21` showed a melting point of 120 to 124 °C. In the case of `CC1CCc2c(sc3nc(C(C)Cl)[nH]c(=O)c23)C1` (configuration not stated), the melting point is reported as 248 to 250 °C. `Cc1cc(NCc2ccco2)ncn1` gave a melting point of 95 to 97 °C. Work on `Cc1c(C(=O)O)oc2ccc(Cl)cc12` yielded a melting point of 255 to 257 °C. For `NS(=O)(=O)c1cc([N+](=O)[O-])ccc1Cl`, the melting point was 155 to 157 °C. Work on `NC(CC(=O)NC1CCCC1)=NO` yielded a melting point of 119 to 121 °C. In the case of `Cc1ccc(N(C)S(=O)(=O)c2cccc(C(=O)O)c2)cc1`, the melting point is reported as 162 to 164 °C. `OCc1cccc2nccn12` gave a melting point of 154 to 156 °C. Work on `COC(=O)c1cc(F)c(F)cc1N` yielded a melting point of 79 to 81 °C. Molecule `Nc1c(C(=O)c2ccco2)oc2ccccc12` has a melting point of 180 to 182 °C. `O=C1CNC(=O)N1c1cccc([N+](=O)[O-])c1` gave a melting point of 164 to 166 °C.
